The text below walks through data of patent US7115584B2, “HIV-1 mutations selected for by β-2′,3′-didehydro-2′,3′-dideoxy-5-fluorocytidine” (priority 1999, dated 2006).

Usually EC50 stands for the concentration that produces a half-maximal response. The EC90 is the concentration needed for an effect of 90%.

Like-named read-outs stand apart in the source and are kept apart here.

For one test, the system named is M184VPITT. The test can be described thus: Effect against HIV-1 and cloned viruses in human PBM cells. The format is cell-based.
In a further test the test system is 215/41PITT. The description is as above. It is filed as cell-based.
The next test concerns xxBRUPITT. The test is described as above. It is filed as cell-based.
Another test concerns M184V/T215YPITT. The test is described as above. The format is cell-based.
In a further test the test system is HIV-1LAV. Described as above. It is filed as cell-based.
Test [1] deals with G2-2PITT (103N, 41L, 184V, 210W, others). Kind of test: Effect against cloned viruses, in MT-2 cells. It is filed as cell-based, HIV-1. Also on record: unit not given beside the values.
For a further test, the system named is T215YPITT. The test can be described thus: Effect against HIV-1 and cloned viruses in human PBM cells. It is filed as cell-based.
Test [2] concerns acutely infected human PBM cells. The test can be described thus: Median effect and combination index analysis, alone and in combination. The format is cell-based. To be noted: PBMC, 144 h.
For test [3], the system named is 4X AZTPITT (67N, 70R, 215Y, 219Q). Kind of test: Effect against HIV-1 and cloned viruses in human PBM cells. The format is cell-based.
Where [4] appears, read: EC50 resistant virus vs HIV-1LAV or xxBRUPITT, listed as β-D-D4FC.

Take `Nc1nc(=O)n([C@H]2C=C[C@@H](CO)O2)cc1F` [β-L-D4FC, β-2′,3′-didehydro-2′,3′-dideoxy-5-fluorocytidine]: the EC50 in the test on M184VPITT (human PBM cells) is 3660 nM; with 215/41PITT (human PBM cells), 18 nM; in the test with xxBRUPITT, 25 nM; in the test on M184V/T215YPITT (human PBM cells), 8300 nM; with HIV-1LAV it was 34 nM; in the test with T215YPITT, 4.7 nM. Further, the EC90 with M184VPITT (human PBM cells) was 14300 nM; with 215/41PITT (human PBM cells) it was 66 nM; in the test with xxBRUPITT, 88 nM; with M184V/T215YPITT (human PBM cells) it was 74600 nM; with HIV-1LAV it was 160 nM; with T215YPITT, 30 nM. The FI50 in test [1] is recorded as more than 47.

Turning to `Cc1cn([C@H]2C[C@H](N=[N+]=[N-])[C@@H](CO)O2)c(=O)[nH]c1=O` [AZT, 3′-azido-3′-deoxythymidine], the EC90 in test [2] worked out at 32 nM.

As to `Nc1nc(=O)n([C@H]2C=C[C@@H](CO)O2)cc1F` [D-D4FC, β-2′,3′-didehydro-2′,3′-dideoxy-5-fluorocytidine], the FI50 with M184VPITT (setting [4]) was 2; with M184V/T215YPITT (setting [4]) it was 1; in test [3] (4X AZTPITT, EC50 resistant virus vs HIV-1LAV or xxBRUPITT), 1; in [1] (listed as β-D-D4FC), 0.2. For the same compound, the FI90 is on record as 1 in the test on 215/41PITT (EC90 resistant virus vs HIV-1LAV or xxBRUPITT); 1 with M184V/T215YPITT (EC90 resistant virus vs HIV-1LAV or xxBRUPITT, listed as β-D-D4FC); 1 in [3] (4X AZTPITT, EC90 resistant virus vs HIV-1LAV or xxBRUPITT). Further, the EC90 amounted to 460 nM in [3] (human PBM cells, 4X AZTPITT (67N, 70R, 215Y, 219Q), listed as β-D-D4FC) and 1320 nM in the test on HIV-1LAV (listed as β-D-D4FC). This compound also came in with an EC50 with HIV-1LAV (listed as β-D-D4FC) of 220 nM.
